{"source": "patent US7928230B2", "about": "“Method for modulating GPR119 G protein-coupled receptor and selected compounds” (Bristol-Myers Squibb Company, priority 2007, dated 2011)", "note": "pEC50: −log10 of the molar value. Structures can show the parent of a compound that is named as a salt.", "data": [{"target": "T1, human GPR119 (Homo sapiens, UniProt Q8TDV5)", "T1 construct": "expressed in transfected cells; host or cells: Flp-In-T-REx 293 cells, tetracycline-induced", "T1 sequence (Q8TDV5 1-335)": "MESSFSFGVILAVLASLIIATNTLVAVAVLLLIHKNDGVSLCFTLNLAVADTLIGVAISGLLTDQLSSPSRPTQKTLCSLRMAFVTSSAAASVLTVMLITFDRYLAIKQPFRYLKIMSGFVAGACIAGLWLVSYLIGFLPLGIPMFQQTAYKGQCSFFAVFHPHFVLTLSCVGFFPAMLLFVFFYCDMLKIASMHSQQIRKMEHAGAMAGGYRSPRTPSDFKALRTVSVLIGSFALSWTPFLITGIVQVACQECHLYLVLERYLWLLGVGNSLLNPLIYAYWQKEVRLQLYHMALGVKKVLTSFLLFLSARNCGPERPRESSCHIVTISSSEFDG", "assay": "Human Tet-inducible cAMP assay", "format": "cell-based", "conditions": "Flp-In-T-REx 293 tetracycline inducible cells expressing GPR119; Hit Hunter cAMP kit; 1 hour at 37° C.; read-out: hGPR119 EC50", "experimental": "The in vitro modulation of recombinant human GPR119 was determined as follows.\nHuman Tet-inducible cAMP Assay\nCell lines expressing GPR119 are generated using the Flp-In-T-REx 293 tetracycline inducible gene expression system are cultured in culture medium comprising the following components: DMFM#11965, 10% FBS, 2 mM L-glutamine, 200 ug/ml Hygromycin B, and 15 ug/ml blasticidin.\nFor cAMP assays, cells are plated on 96 well plates (e.g., BD Falcon: REF 353948, black side, clear bottom, TC surface) at a density of about 4.5×10^4 cells per well in growth medium containing 1.0 ug/ml tetracycline (1.0 mg/ml stock). The cells are then incubated for 48 hours at 37° C.\nFollowing the incubation, the growth medium is removed from the wells and the wells rinsed (once) with the assay buffer included in the Hit Hunter cAMP kit (100 μl/well). Following the wash, 20 μl of assay buffer is added to each well, followed by addition of 10 μl of a 3× concentration compound working solution. The solution is then mixed. The final concentration range of compound is from about 10^−5M to about 10^−11M. The reagents are then incubated at 37° C. at 5% CO2 for 1 hour.\nThe manufacturer's protocol may be followed for cAMP determination. The Hit Hunter cAMP kit protocol is outlined for the HIT-T15 cAMP assays described above.\nCompounds of the present invention were tested in the Human Tet-inducible cAMP assay described immediately above and the results shown in Table 4 below were obtained.", "values": [{"smiles": "CCCc1cnc(N2CCC(Oc3ccn(-c4ccc(-n5cncn5)cc4)c(=O)c3)CC2)nc1", "note": "[Example 1, 1-(4-(1H-1,2,4-triazol-1-yl)phenyl)-4-(1-(5-propylpyrimidin-2-yl)piperidin-4-yloxy)pyridin-2(1H)-one, hydrochloride salt]", "pEC50": 7.06}, {"smiles": "CCCc1cnc(N2CCC(Oc3ccn(-c4ccc(-n5ccnc5)cc4)c(=O)c3)CC2)nc1", "note": "[Example 2, 1-(4-(1H-imidazol-1-yl)phenyl)-4-(1-(5-propylpyrimidin-2-yl)piperidin-4-yloxy)pyridin-2(1H)-one, hydrochloride salt]", "pEC50": 7.03}, {"smiles": "CC(C)OC(=O)N1CCC(Oc2ccn(-c3ccc(-n4cncn4)cc3)c(=O)c2)CC1", "note": "[Example 4, isopropyl 4-(1-(4-(1H-1,2,4-triazol-1-yl)phenyl)-2-oxo-1,2-dihydropyridin-4-yloxy)piperidine-1-carboxylate]", "pEC50": 5.28}, {"smiles": "CCCc1cnc(N2CCC(Oc3ccn(-c4ccc(-c5ncco5)cc4)c(=O)c3)CC2)nc1", "note": "[Example 3, 1-(4-(oxazol-2-yl)phenyl)-4-(1-(5-propylpyrimidin-2-yl)piperidin-4-yloxy)pyridin-2(1H)-one]", "pEC50": 6.69}]}]}
